Data: PubChem BioAssay (NCI)
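A five-concentration, 48-hour dose response in 96-well plates underlies each endpoint, interpolated linearly between surrounding concentrations. At the TGI there is no net growth.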

Columns and labels:
Test in all cases: NCI anticancer screen, dose series, 48 h
MDA-MB-231 breast = test system: MDA-MB-231 breast
HCT-116 colon = test system: HCT-116 colon
SK-MEL-28 melanoma = test system: SK-MEL-28 melanoma
SR leukemia = test system: SR leukemia
BT-549 breast = test system: BT-549 breast
SF-539 CNS = test system: SF-539 CNS
MOLT-4 leukemia = test system: MOLT-4 leukemia
A498 renal = test system: A498 renal
HOP-62 NSCLC = test system: HOP-62 NSCLC
EKVX NSCLC = test system: EKVX NSCLC
COLO 205 colon = test system: COLO 205 colon
MDA-MB-435 = test system: MDA-MB-435
A549 NSCLC = test system: A549 NSCLC
NCI/ADR-RES ovarian = test system: NCI/ADR-RES ovarian
HOP-92 NSCLC = test system: HOP-92 NSCLC
U251 CNS = test system: U251 CNS
OVCAR-5 ovarian = test system: OVCAR-5 ovarian
NCI-H23 lung = test system: NCI-H23 lung
786-0 renal = test system: 786-0 renal
TK-10 renal = test system: TK-10 renal
SK-MEL-2 melanoma = test system: SK-MEL-2 melanoma
RXF 393 renal = test system: RXF 393 renal
HCT-15 colon = test system: HCT-15 colon
M14 melanoma = test system: M14 melanoma
NCI-H460 lung = test system: NCI-H460 lung
SNB-75 CNS = test system: SNB-75 CNS
SF-295 CNS = test system: SF-295 CNS
OVCAR-8 ovarian = test system: OVCAR-8 ovarian
SF-268 CNS = test system: SF-268 CNS
MDA-N = test system: MDA-N
NCI-H522 lung = test system: NCI-H522 lung
NCI-H226 lung = test system: NCI-H226 lung
HS 578T breast = test system: HS 578T breast
PC-3 prostate = test system: PC-3 prostate
K-562 leukemia = test system: K-562 leukemia
SK-MEL-5 melanoma = test system: SK-MEL-5 melanoma
IGROV1 ovarian = test system: IGROV1 ovarian
SW-620 colon = test system: SW-620 colon
OVCAR-4 ovarian = test system: OVCAR-4 ovarian
SK-OV-3 ovarian = test system: SK-OV-3 ovarian
MCF7 breast = test system: MCF7 breast
CAKI-1 renal = test system: CAKI-1 renal
HT29 colon = test system: HT29 colon
SNB-19 CNS = test system: SNB-19 CNS
RPMI-8226 leukemia = test system: RPMI-8226 leukemia
ACHN renal = test system: ACHN renal
T-47D breast = test system: T-47D breast
MALME-3M melanoma = test system: MALME-3M melanoma
HL-60(TB) leukemia = test system: HL-60(TB) leukemia
UACC-257 melanoma = test system: UACC-257 melanoma
DU-145 prostate = test system: DU-145 prostate
OVCAR-3 ovarian = test system: OVCAR-3 ovarian
UACC-62 melanoma = test system: UACC-62 melanoma
KM12 colon = test system: KM12 colon
LOX IMVI melanoma = test system: LOX IMVI melanoma
SN12C renal = test system: SN12C renal
UO-31 renal = test system: UO-31 renal
CCRF-CEM leukemia = test system: CCRF-CEM leukemia
HCC-2998 colon = test system: HCC-2998 colon

C=CCSc1nc2c(N)ncnc2n1C1OC(CO)C(O)C1O (stereo not given)
TGI (MDA-MB-231 breast): > 100 µM
TGI (HCT-116 colon): > 100 µM
TGI (SK-MEL-28 melanoma): > 100 µM
TGI (SR leukemia): > 100 µM
TGI (BT-549 breast): > 100 µM
TGI (SF-539 CNS): > 100 µM
TGI (MOLT-4 leukemia): > 100 µM
TGI (A498 renal): > 100 µM
TGI (HOP-62 NSCLC): > 100 µM
TGI (EKVX NSCLC): > 100 µM
TGI (COLO 205 colon): > 100 µM
TGI (MDA-MB-435): > 100 µM
TGI (A549 NSCLC): > 100 µM
TGI (NCI/ADR-RES ovarian): > 100 µM
TGI (HOP-92 NSCLC): > 100 µM
TGI (U251 CNS): > 100 µM
TGI (OVCAR-5 ovarian): > 100 µM
TGI (NCI-H23 lung): > 100 µM
TGI (786-0 renal): > 100 µM
TGI (TK-10 renal): > 100 µM
TGI (SK-MEL-2 melanoma): > 100 µM
TGI (RXF 393 renal): > 100 µM
TGI (HCT-15 colon): > 100 µM
TGI (M14 melanoma): > 100 µM
TGI (NCI-H460 lung): > 100 µM
TGI (SNB-75 CNS): > 100 µM
TGI (SF-295 CNS): > 100 µM
TGI (OVCAR-8 ovarian): > 100 µM
TGI (SF-268 CNS): > 100 µM
TGI (MDA-N): > 100 µM
TGI (NCI-H522 lung): > 100 µM
TGI (NCI-H226 lung): > 100 µM
TGI (HS 578T breast): > 100 µM
TGI (PC-3 prostate): > 100 µM
TGI (K-562 leukemia): > 100 µM
TGI (SK-MEL-5 melanoma): > 100 µM
TGI (IGROV1 ovarian): > 100 µM
TGI (SW-620 colon): > 100 µM
TGI (OVCAR-4 ovarian): > 100 µM
TGI (SK-OV-3 ovarian): > 100 µM
TGI (MCF7 breast): > 100 µM
TGI (CAKI-1 renal): > 100 µM
TGI (HT29 colon): > 100 µM
TGI (SNB-19 CNS): > 100 µM
TGI (RPMI-8226 leukemia): > 100 µM
TGI (ACHN renal): > 100 µM
TGI (T-47D breast): > 100 µM
TGI (MALME-3M melanoma): > 100 µM
TGI (HL-60(TB) leukemia): > 100 µM
TGI (UACC-257 melanoma): > 100 µM
TGI (DU-145 prostate): > 100 µM
TGI (OVCAR-3 ovarian): > 100 µM
TGI (UACC-62 melanoma): > 100 µM
TGI (KM12 colon): > 100 µM
TGI (LOX IMVI melanoma): > 100 µM
TGI (SN12C renal): > 100 µM
TGI (UO-31 renal): > 100 µM

C[n+]1cn(C2=C([O-])c3ccccc3C(=O)/C2=N\S(=O)(=O)c2ccccc2)c2ccccc21
TGI (MDA-MB-231 breast): > 100 µM
TGI (HCT-116 colon): > 100 µM
TGI (SK-MEL-28 melanoma): > 100 µM
TGI (SR leukemia): > 100 µM
TGI (BT-549 breast): 86.1 µM
TGI (SF-539 CNS): > 100 µM
TGI (MOLT-4 leukemia): > 100 µM
TGI (CCRF-CEM leukemia): > 100 µM
TGI (HOP-62 NSCLC): > 100 µM
TGI (EKVX NSCLC): > 100 µM
TGI (COLO 205 colon): 26.1 µM
TGI (MDA-MB-435): 6.34 µM
TGI (A549 NSCLC): > 100 µM
TGI (NCI/ADR-RES ovarian): > 100 µM
TGI (HOP-92 NSCLC): > 100 µM
TGI (U251 CNS): 50.7 µM
TGI (OVCAR-5 ovarian): > 100 µM
TGI (NCI-H23 lung): 34.7 µM
TGI (786-0 renal): > 100 µM
TGI (TK-10 renal): 70.5 µM
TGI (SK-MEL-2 melanoma): 44.1 µM
TGI (RXF 393 renal): 85.1 µM
TGI (HCT-15 colon): > 100 µM
TGI (M14 melanoma): 48.3 µM
TGI (NCI-H460 lung): 84.5 µM
TGI (SNB-75 CNS): > 100 µM
TGI (SF-295 CNS): > 100 µM
TGI (OVCAR-8 ovarian): 77.4 µM
TGI (SF-268 CNS): > 100 µM
TGI (MDA-N): 26.6 µM
TGI (NCI-H522 lung): 26.8 µM
TGI (NCI-H226 lung): > 100 µM
TGI (HS 578T breast): > 100 µM
TGI (PC-3 prostate): > 100 µM
TGI (K-562 leukemia): > 100 µM
TGI (SK-MEL-5 melanoma): > 100 µM
TGI (IGROV1 ovarian): 87.3 µM
TGI (SW-620 colon): > 100 µM
TGI (OVCAR-4 ovarian): 37.8 µM
TGI (SK-OV-3 ovarian): > 100 µM
TGI (MCF7 breast): > 100 µM
TGI (CAKI-1 renal): > 100 µM
TGI (HT29 colon): > 100 µM
TGI (SNB-19 CNS): 78.5 µM
TGI (RPMI-8226 leukemia): > 100 µM
TGI (ACHN renal): > 100 µM
TGI (T-47D breast): > 100 µM
TGI (MALME-3M melanoma): 5.88 µM
TGI (HL-60(TB) leukemia): 86.1 µM
TGI (UACC-257 melanoma): 76.6 µM
TGI (DU-145 prostate): > 100 µM
TGI (OVCAR-3 ovarian): 44.9 µM
TGI (HCC-2998 colon): 46.7 µM
TGI (UACC-62 melanoma): 45.6 µM
TGI (KM12 colon): > 100 µM
TGI (LOX IMVI melanoma): 76.4 µM
TGI (SN12C renal): > 100 µM
TGI (UO-31 renal): > 100 µM
